{"source": "the NIST ThermoML archive (doi:10.1021/acs.jced.8b00310)", "experiment": "molar heat capacity at constant pressure", "conditions": "Gas, Flow calorimetry", "note": "Numbers after ± are expanded uncertainties.", "data": [{"smiles": "FC(F)C(F)(F)F", "note": "[pentafluoroethane]", "values": [{"measurement": "molar heat capacity at constant pressure", "setting": "303.15 K, 1500 kPa", "result": "129.62 ± 4.8", "unit": "J/K/mol"}, {"measurement": "molar heat capacity at constant pressure", "setting": "307.15 K, 1500 kPa", "result": "123.62 ± 1.7", "unit": "J/K/mol"}, {"measurement": "molar heat capacity at constant pressure", "setting": "311.15 K, 1500 kPa", "result": "121.1 ± 3.6", "unit": "J/K/mol"}, {"measurement": "molar heat capacity at constant pressure", "setting": "313.15 K, 1500 kPa", "result": "121.58 ± 2.4", "unit": "J/K/mol"}, {"measurement": "molar heat capacity at constant pressure", "setting": "314.15 K, 2000 kPa", "result": "147.63 ± 6", "unit": "J/K/mol"}, {"measurement": "molar heat capacity at constant pressure", "setting": "315.15 K, 2000 kPa", "result": "145.71 ± 3.6", "unit": "J/K/mol"}, {"measurement": "molar heat capacity at constant pressure", "setting": "316.15 K, 2000 kPa", "result": "145.35 ± 3.6", "unit": "J/K/mol"}, {"measurement": "molar heat capacity at constant pressure", "setting": "317.15 K, 2000 kPa", "result": "144.27 ± 3.6", "unit": "J/K/mol"}, {"measurement": "molar heat capacity at constant pressure", "setting": "318.15 K, 2000 kPa", "result": "143.43 ± 6", "unit": "J/K/mol"}, {"measurement": "molar heat capacity at constant pressure", "setting": "319.15 K, 2000 kPa", "result": "140.18 ± 3.6", "unit": "J/K/mol"}, {"measurement": "molar heat capacity at constant pressure", "setting": "319.15 K, 2200 kPa", "result": "158.55 ± 3.6", "unit": "J/K/mol"}, {"measurement": "molar heat capacity at constant pressure", "setting": "320.15 K, 2000 kPa", "result": "138.38 ± 6", "unit": "J/K/mol"}, {"measurement": "molar heat capacity at constant pressure", "setting": "320.15 K, 2200 kPa", "result": "159.03 ± 3.6", "unit": "J/K/mol"}, {"measurement": "molar heat capacity at constant pressure", "setting": "321.15 K, 2000 kPa", "result": "139.7 ± 4.8", "unit": "J/K/mol"}, {"measurement": "molar heat capacity at constant pressure", "setting": "321.15 K, 2200 kPa", "result": "156.99 ± 2.4", "unit": "J/K/mol"}, {"measurement": "molar heat capacity at constant pressure", "setting": "322.15 K, 2000 kPa", "result": "135.62 ± 3.6", "unit": "J/K/mol"}, {"measurement": "molar heat capacity at constant pressure", "setting": "323.15 K, 2200 kPa", "result": "153.75 ± 6", "unit": "J/K/mol"}, {"measurement": "molar heat capacity at constant pressure", "setting": "323.15 K, 2400 kPa", "result": "173.91 ± 7.2", "unit": "J/K/mol"}, {"measurement": "molar heat capacity at constant pressure", "setting": "324.15 K, 2400 kPa", "result": "168.03 ± 5.3", "unit": "J/K/mol"}, {"measurement": "molar heat capacity at constant pressure", "setting": "325.15 K, 2400 kPa", "result": "161.31 ± 4.8", "unit": "J/K/mol"}, {"measurement": "molar heat capacity at constant pressure", "setting": "326.15 K, 2400 kPa", "result": "159.03 ± 7.2", "unit": "J/K/mol"}, {"measurement": "molar heat capacity at constant pressure", "setting": "327.15 K, 2400 kPa", "result": "157.47 ± 7.2", "unit": "J/K/mol"}, {"measurement": "molar heat capacity at constant pressure", "setting": "343.15 K, 500 kPa", "result": "103.22 ± 3.6", "unit": "J/K/mol"}, {"measurement": "molar heat capacity at constant pressure", "setting": "343.15 K, 650 kPa", "result": "105.62 ± 3.6", "unit": "J/K/mol"}, {"measurement": "molar heat capacity at constant pressure", "setting": "343.15 K, 1000 kPa", "result": "108.26 ± 2.4", "unit": "J/K/mol"}, {"measurement": "molar heat capacity at constant pressure", "setting": "343.15 K, 1500 kPa", "result": "115.7 ± 2.4", "unit": "J/K/mol"}, {"measurement": "molar heat capacity at constant pressure", "setting": "343.15 K, 2000 kPa", "result": "123.14 ± 2.3", "unit": "J/K/mol"}, {"measurement": "molar heat capacity at constant pressure", "setting": "343.15 K, 2200 kPa", "result": "128.3 ± 2.4", "unit": "J/K/mol"}, {"measurement": "molar heat capacity at constant pressure", "setting": "343.15 K, 2400 kPa", "result": "134.42 ± 2.3", "unit": "J/K/mol"}]}]}
